Measured values published in patent US9771369B2, “Compounds and methods for kinase modulation, and indications therefor” (Plexxikon Inc., priority 2014, dated 2017).

Biological target: c-Kit kinase (Homo sapiens (Human), UniProt P10721)
Assay: c-Kit biochemical assay (AlphaScreen kinase activity)
Method in brief: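 IC50 values come from 8-point, 1:3 compound titrations measuring inhibition of peptide phosphorylation by c-Kit (commercial or His-tagged E. coli-expressed) over 1 h at room temperature, read by AlphaScreen PY30/streptavidin beads. Low-ATP version: 10 μM ATP, 100 nM biotin-(E4Y)3; high-ATP version: 100 μM ATP, 30 nM biotin-(E4Y)10.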

Sequence of c-Kit kinase (P10721 26-976): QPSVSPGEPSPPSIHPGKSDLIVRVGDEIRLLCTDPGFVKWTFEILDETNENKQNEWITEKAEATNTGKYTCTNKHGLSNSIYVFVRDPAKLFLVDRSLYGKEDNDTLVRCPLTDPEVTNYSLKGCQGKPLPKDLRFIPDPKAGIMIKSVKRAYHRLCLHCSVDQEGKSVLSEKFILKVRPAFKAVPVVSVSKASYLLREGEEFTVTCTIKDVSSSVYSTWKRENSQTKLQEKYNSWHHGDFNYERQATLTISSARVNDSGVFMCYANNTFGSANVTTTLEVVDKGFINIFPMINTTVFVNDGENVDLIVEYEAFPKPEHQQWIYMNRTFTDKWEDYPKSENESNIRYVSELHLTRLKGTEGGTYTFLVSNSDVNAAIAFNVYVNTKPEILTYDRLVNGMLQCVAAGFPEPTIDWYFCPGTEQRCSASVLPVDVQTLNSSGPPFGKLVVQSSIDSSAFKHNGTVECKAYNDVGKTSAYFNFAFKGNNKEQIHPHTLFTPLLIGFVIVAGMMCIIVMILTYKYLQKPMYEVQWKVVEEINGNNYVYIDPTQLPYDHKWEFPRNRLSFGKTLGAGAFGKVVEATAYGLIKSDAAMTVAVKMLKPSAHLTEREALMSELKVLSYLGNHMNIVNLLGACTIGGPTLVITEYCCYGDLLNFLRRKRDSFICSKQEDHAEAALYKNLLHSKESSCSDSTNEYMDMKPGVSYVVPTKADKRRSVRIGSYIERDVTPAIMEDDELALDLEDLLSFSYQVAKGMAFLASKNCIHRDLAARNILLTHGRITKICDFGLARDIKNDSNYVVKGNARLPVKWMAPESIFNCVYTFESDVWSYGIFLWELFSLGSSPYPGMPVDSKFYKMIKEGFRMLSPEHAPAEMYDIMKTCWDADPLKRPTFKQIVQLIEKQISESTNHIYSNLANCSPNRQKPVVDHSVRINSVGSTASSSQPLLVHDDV

Compound | IC50
Cc1cc2c(N3CCC(C)(c4nc(C)c(-c5ccc(OC(F)F)cc5)[nH]4)CC3)ncnc2[nH]1 [P-3196, 4-[4-[5-[4-(difluoromethoxy)phenyl]-4-methyl-1H-imidazol-2-yl]-4-methyl-1-piperidyl]-6-methyl-7H-pyrrolo[2,3-d]pyrimidine] | 1 to 10 µM
CCc1[nH]c(C2CCN(c3ncnc4[nH]c(-c5cnn(C(F)F)c5)cc34)CC2)nc1C [P-3197, 6-[1-(difluoromethyl)pyrazol-4-yl]-4-[4-(5-ethyl-4-methyl-1H-imidazol-2-yl)-1-piperidyl]-7H-pyrrolo[2,3-d]pyrimidine] | 1 to 10 µM
CCc1[nH]c(C2CCN(c3ncnc4[nH]c(-c5ccc(C#N)cc5)cc34)CC2)nc1C [P-3198, 4-[4-[4-(5-ethyl-4-methyl-1H-imidazol-2-yl)-1-piperidyl]-7H-pyrrolo[2,3-d]pyrimidin-6-yl]benzonitrile] | 1 to 10 µM
COc1ccc(-c2[nH]c(C3(C)CCN(c4ncnc5[nH]c(-c6ccc(C(=O)O)cc6)cc45)CC3)nc2C)cc1F [P-3199, 4-[4-[4-[5-(3-fluoro-4-methoxy-phenyl)-4-methyl-1H-imidazol-2-yl]-4-methyl-1-piperidyl]-7H-pyrrolo[2,3-d]pyrimidin-6-yl]benzoic acid] | 0.0001 to 1 µM
Cc1nc(C2(C)CCN(c3ncnc4[nH]nc(C)c34)CC2)[nH]c1-c1ccc(Cl)cc1 [P-3200, 4-[4-[5-(4-chlorophenyl)-4-methyl-1H-imidazol-2-yl]-4-methyl-1-piperidyl]-3-methyl-1H-pyrazolo[3,4-d]pyrimidine] | 1 to 10 µM
Cc1nc(C2(C)CCN(c3ncnc4[nH]nc(C)c34)CC2)[nH]c1-c1cccc(OC(F)F)c1 [P-3201, 4-[4-[5-[3-(difluoromethoxy)phenyl]-4-methyl-1H-imidazol-2-yl]-4-methyl-1-piperidyl]-3-methyl-1H-pyrazolo[3,4-d]pyrimidine] | 1 to 10 µM
COc1ccc(-c2[nH]c(C3(C)CCN(c4ncnc5[nH]nc(C)c45)CC3)nc2C)cc1F [P-3202, 4-[4-[5-(3-fluoro-4-methoxy-phenyl)-4-methyl-1H-imidazol-2-yl]-4-methyl-1-piperidyl]-3-methyl-1H-pyrazolo[3,4-d]pyrimidine] | 1 to 10 µM
Cc1nc(C2(C)CCN(c3ncnc4[nH]nc(C)c34)CC2)[nH]c1-c1ccc2c(c1)OC(F)(F)O2 [P-3203, 4-[4-[5-(2,2-difluoro-1,3-benzodioxol-5-yl)-4-methyl-1H-imidazol-2-yl]-4-methyl-1-piperidyl]-3-methyl-1H-pyrazolo[3,4-d]pyrimidine] | 1 to 10 µM
Fc1ccc(-c2cc3c(N4CCC(c5nnc(-c6ccc(F)cc6)[nH]5)CC4)ncnc3[nH]2)cc1 [P-3206, 6-(4-fluorophenyl)-4-[4-[5-(4-fluorophenyl)-4H-1,2,4-triazol-3-yl]-1-piperidyl]-7H-pyrrolo[2,3-d]pyrimidine] | 1 to 10 µM
COc1cc(-c2cc3c(N4CCC(c5nnc(-c6cccc(OC(F)F)c6)[nH]5)CC4)ncnc3[nH]2)ccn1 [P-3207, 4-[4-[5-[3-(difluoromethoxy)phenyl]-4H-1,2,4-triazol-3-yl]-1-piperidyl]-6-(2-methoxy-4-pyridyl)-7H-pyrrolo[2,3-d]pyrimidine] | 1 to 10 µM
CCOc1ccc(-c2[nH]c(C3(C)CCN(c4ncnc5[nH]c(-c6ccc(OC)nc6)cc45)CC3)nc2C)cc1F [P-3209, 4-[4-[5-(4-ethoxy-3-fluoro-phenyl)-4-methyl-1H-imidazol-2-yl]-4-methyl-1-piperidyl]-6-(6-methoxy-3-pyridyl)-7H-pyrrolo[2,3-d]pyrimidine] | 0.0001 to 1 µM
CCOc1ccc(-c2[nH]c(C3(C)CCN(c4ncnc5[nH]c(-c6cnn(C(F)F)c6)cc45)CC3)nc2C)cc1F [P-3210, 6-[1-(difluoromethyl)pyrazol-4-yl]-4-[4-[5-(4-ethoxy-3-fluoro-phenyl)-4-methyl-1H-imidazol-2-yl]-4-methyl-1-piperidyl]-7H-pyrrolo[2,3-d]pyrimidine] | 0.0001 to 1 µM
COc1ccc(-c2[nH]c(C3(C)CCN(c4ncnc5[nH]c(-c6ccc(C#N)nc6)cc45)CC3)nc2C)cc1F [P-3211, 5-[4-[4-[5-(3-fluoro-4-methoxy-phenyl)-4-methyl-1H-imidazol-2-yl]-4-methyl-1-piperidyl]-7H-pyrrolo[2,3-d]pyrimidin-6-yl]pyridine-2-carbonitrile] | 1 to 10 µM
COc1ccc(-c2[nH]c(C3(C)CCN(c4ncnc5[nH]c(-c6ccc(C(N)=O)cc6)cc45)CC3)nc2C)cc1F [P-3212, 4-[4-[4-[5-(3-fluoro-4-methoxy-phenyl)-4-methyl-1H-imidazol-2-yl]-4-methyl-1-piperidyl]-7H-pyrrolo[2,3-d]pyrimidin-6-yl]benzamide] | 0.0001 to 1 µM
COc1ccc(-c2[nH]c(C3(C)CCN(c4ncnc5[nH]c(-c6ccc(NS(C)(=O)=O)cc6)cc45)CC3)nc2C)cc1F [P-3213, N-[4-[4-[4-[5-(3-fluoro-4-methoxy-phenyl)-4-methyl-1H-imidazol-2-yl]-4-methyl-1-piperidyl]-7H-pyrrolo[2,3-d]pyrimidin-6-yl]phenyl]methanesulfonamide] | 0.0001 to 1 µM
COc1ccc(-c2[nH]c(C3(C)CCN(c4ncnc5[nH]c(-c6ccc(OCC(=O)O)cc6)cc45)CC3)nc2C)cc1F [P-3214, 2-[4-[4-[4-[5-(3-fluoro-4-methoxy-phenyl)-4-methyl-1H-imidazol-2-yl]-4-methyl-1-piperidyl]-7H-pyrrolo[2,3-d]pyrimidin-6-yl]phenoxy]acetic acid] | 0.0001 to 1 µM
COc1ccc(-c2[nH]c(C3(C)CCN(c4ncnc5[nH]c(-c6ccc(N7CCOCC7)nc6)cc45)CC3)nc2C)cc1F [P-3215, 4-[5-[4-[4-[5-(3-fluoro-4-methoxy-phenyl)-4-methyl-1H-imidazol-2-yl]-4-methyl-1-piperidyl]-7H-pyrrolo[2,3-d]pyrimidin-6-yl]-2-pyridyl]morpholine] | 0.0001 to 1 µM
COc1ccc(-c2[nH]c(C3(C)CCN(c4ncnc5[nH]c(-c6ccc(C(N)=O)cc6)cc45)CC3)nc2C)cc1C [P-3216, 4-[4-[4-[5-(4-methoxy-3-methyl-phenyl)-4-methyl-1H-imidazol-2-yl]-4-methyl-1-piperidyl]-7H-pyrrolo[2,3-d]pyrimidin-6-yl]benzamide] | 0.0001 to 1 µM
COc1ccc(-c2[nH]c(C3(C)CCN(c4ncnc5[nH]c(-c6ccc(OCC(=O)O)cc6)cc45)CC3)nc2C)cc1C [P-3217, 2-[4-[4-[4-[5-(4-methoxy-3-methyl-phenyl)-4-methyl-1H-imidazol-2-yl]-4-methyl-1-piperidyl]-7H-pyrrolo[2,3-d]pyrimidin-6-yl]phenoxy]acetic acid] | 0.0001 to 1 µM
CNC(=O)c1ccc(-c2cc3c(N4CCC(C)(c5nc(C)c(-c6ccc(OC)c(C)c6)[nH]5)CC4)ncnc3[nH]2)cn1 [P-3218, 5-[4-[4-[5-(4-methoxy-3-methyl-phenyl)-4-methyl-1H-imidazol-2-yl]-4-methyl-1-piperidyl]-7H-pyrrolo[2,3-d]pyrimidin-6-yl]-N-methyl-pyridine-2-carboxamide] | 0.0001 to 1 µM
COc1ccc(-c2[nH]c(C3(C)CCN(c4ncnc5[nH]c(-c6ccc(N7CCOCC7)nc6)cc45)CC3)nc2C)cc1C [P-3219, 4-[5-[4-[4-[5-(4-methoxy-3-methyl-phenyl)-4-methyl-1H-imidazol-2-yl]-4-methyl-1-piperidyl]-7H-pyrrolo[2,3-d]pyrimidin-6-yl]-2-pyridyl]morpholine] | 0.0001 to 1 µM
CNC(=O)c1ccc(-c2cc3c(N4CCC(C)(c5nc(C)c(-c6ccc(OC)c(F)c6)[nH]5)CC4)ncnc3[nH]2)cn1 [P-3220, 5-[4-[4-[5-(3-fluoro-4-methoxy-phenyl)-4-methyl-1H-imidazol-2-yl]-4-methyl-1-piperidyl]-7H-pyrrolo[2,3-d]pyrimidin-6-yl]-N-methyl-pyridine-2-carboxamide] | 0.0001 to 1 µM
COc1cccc(-c2[nH]c(C3(C)CCN(c4ncnc5[nH]c(-c6ccc(OCC(=O)O)cc6)cc45)CC3)nc2C)c1 [P-3221, 2-[4-[4-[4-[5-(3-methoxyphenyl)-4-methyl-1H-imidazol-2-yl]-4-methyl-1-piperidyl]-7H-pyrrolo[2,3-d]pyrimidin-6-yl]phenoxy]acetic acid] | 0.0001 to 1 µM
CNC(=O)c1ccc(-c2cc3c(N4CCC(C)(c5nc(C)c(-c6cccc(OC)c6)[nH]5)CC4)ncnc3[nH]2)cn1 [P-3222, 5-[4-[4-[5-(3-methoxyphenyl)-4-methyl-1H-imidazol-2-yl]-4-methyl-1-piperidyl]-7H-pyrrolo[2,3-d]pyrimidin-6-yl]-N-methyl-pyridine-2-carboxamide] | 0.0001 to 1 µM
COc1cccc(-c2[nH]c(C3(C)CCN(c4ncnc5[nH]c(-c6ccc(N7CCOCC7)nc6)cc45)CC3)nc2C)c1 [P-3223, 4-[5-[4-[4-[5-(3-methoxyphenyl)-4-methyl-1H-imidazol-2-yl]-4-methyl-1-piperidyl]-7H-pyrrolo[2,3-d]pyrimidin-6-yl]-2-pyridyl]morpholine] | 0.0001 to 1 µM
CCOc1ccc(-c2[nH]c(C3(C)CCN(c4ncnc5[nH]c(-c6ccc(OCC(=O)O)cc6)cc45)CC3)nc2C)cc1 [P-3224, 2-[4-[4-[4-[5-(4-ethoxyphenyl)-4-methyl-1H-imidazol-2-yl]-4-methyl-1-piperidyl]-7H-pyrrolo[2,3-d]pyrimidin-6-yl]phenoxy]acetic acid] | 0.0001 to 1 µM
COc1cccc(-c2[nH]c(C3(C)CCN(c4ncnc5[nH]c(-c6ccc(C(N)=O)cc6)cc45)CC3)nc2C)c1 [P-3225, 4-[4-[4-[5-(3-methoxyphenyl)-4-methyl-1H-imidazol-2-yl]-4-methyl-1-piperidyl]-7H-pyrrolo[2,3-d]pyrimidin-6-yl]benzamide] | 0.0001 to 1 µM
CCOc1ccc(-c2[nH]c(C3(C)CCN(c4ncnc5[nH]c(-c6ccc(C(=O)NC)nc6)cc45)CC3)nc2C)cc1 [P-3226, 5-[4-[4-[5-(4-ethoxyphenyl)-4-methyl-1H-imidazol-2-yl]-4-methyl-1-piperidyl]-7H-pyrrolo[2,3-d]pyrimidin-6-yl]-N-methyl-pyridine-2-carboxamide] | 0.0001 to 1 µM
